Results as given in US9051310B2, “Nicotinamide derivative or salt thereof” (FUJIFILM Corporation, priority 2011, dated 2015).

Tests used:
[1] = biological target: T1, glutathione S-transferase (GST)-linked full-length human Syk protein (Homo sapiens, UniProt P43405); test: Syk enzyme assay; type: biochemical; conditions: 0.83 nM Syk, time-resolved fluorescence; read-out: IC50 of Syk-inhibitory activity
T1 construct: glutathione S-transferase (GST)-linked full-length human Syk protein; purchased Carna Biosciences; host or cells: Baculovirus expression system
Outline: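 Phosphotyrosine on a biotin-peptide substrate (0.5 μM) was read by time-resolved fluorescence at 615 and 665 nm with Eu-anti-pTyr antibody and APC-streptavidin after 1 h EDTA stop.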

[2] = system: THP-1 cells (TNFα secretion on human IgG-coated plate); test: TNFα generation assay; type: cell-based; conditions: IFN-γ differentiated THP-1 cells, 7 hours, AlphaLISA, read-out: IC50 of TNFα generation inhibitory activity
Outline: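 Secreted TNFα was measured by AlphaLISA after 7 h of culture on human IgG-coated wells (coating at 10 μg/ml), with 5×10^4 cells/well. Before plating, the cells had been treated with compound for 30 min at room temperature. The cells were macrophage-like THP-1, produced by a 2-day exposure to 10 ng/ml IFN-γ.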

[3] = system: THP-1 cells (phagocytosis of opsonized Escherichia coli); test: Antibody-dependent phagocytosis assay; type: cell-based; conditions: Homo sapiens; IFNγ differentiated THP-1 cells, opsonized pHrodo Escherichia coli, 3 hours; read-out: IC50 upon phagocytosis inhibition
Outline: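 Read-out was imaging-based quantification of pHrodo-labeled, antibody-opsonized E. coli taken up by Calcein AM-stained viable cells after 3 h at 37° C. The cells were IFNγ-differentiated THP-1 macrophages (10 ng/ml, 2 days), preincubated with compound for 30 min at room temperature.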

[4] = system: rat type II collagen arthritis; test: Rat type II collagen-induced arthritis; type: in vivo; conditions: female Lewis rats, oral administration 10 mg/kg/day, Day 7 to Day 20 once daily, Student's t-test
Protocol: The compounds were tested to examine effects upon rat type II collagen arthritis. Equivalent volumes of 0.05 mol/L acetic acid in which a 3 mg/mL bovine type II collagen solution (Collagen Gijutsu Kenshu-Kai) had been dissolved and Freund's incomplete adjuvant (Wako Pure Chemical Industries, Ltd.) were mixed to prepare an emulsion. A portion of the emulsion (0.5 ml) was intradermally injected into the tail bases of 6- to 8-week-old female Lewis rats (Charles River Laboratories Japan, Inc.) (Day 0). Each rat was subjected to the same treatment on Day 7 after the initial inoculation so as to induce arthritis. Each test compound was orally administered from Day 7 to Day 20 once daily. At a given time during the period from Day 7 to Day 21, the rat hindlimb volume was determined using a plethysmometer (UGO BASILE), and the result was designated as an arthritis index.

[5] = system: mouse thrombocytopenia induced by anti-mouse CD41 antibody; test: Mouse thrombocytopenia model; type: in vivo; conditions: Platelet, female BALB/c mice, 50 mg/kg 1 hour before anti-CD41 antibody, blood sampling 4 hours after antibody, read-out: improvement of platelet count compared with the control group
Protocol: Test compounds were tested to examine effects upon mouse thrombocytopenia. Each test compound (50 mg/kg) was administered to 5- to 7-week-old female BALB/c mice (Charles River Laboratories Japan, Inc.). One hour thereafter, an anti-mouse CD41 ([…]) antibody (SCB) (1 μg (200 μl)) was intravenously administered to each mouse so as to induce thrombocytopenia. Four hours after administration of the anti-CD41 antibody, blood sampling from the postcava was performed. The platelet count was determined using an automated hematology analyzer.

Row | Structure (SMILES) | IC50 [1] [nM] | IC50 [2] [nM] | IC50 [3] [nM] | hindlimb swelling on Day 20 compared with the control group [4] | change in vivo at 50 mg/kg [5] [%]
1 | CN(C)c1nn(C)c2ccc(Nc3nc(N[C@@H]4CCCC[C@@H]4N)c(F)cc3C(N)=O)cc12 [Example 2-1, 6-(((1R,2S)-2-aminocyclohexyl)amino)-2-((3-(dimethylamino)-1-methyl-1H-indazol-5-yl)amino)-5-fluoronicotinamide] | < 10 | 65 to 130 | < 1000 | significantly inhibited hindlimb swelling | ≥ 50
2 | Cc1cc(Nc2nc(N[C@H](CC(C)C)[C@H](C)N)c(F)cc2C(N)=O)cnc1C [Example 2-18, 6-(((2S,3R)-2-amino-5-methylhexan-3-yl)amino)-2-((5,6-dimethylpyridin-3-yl)amino)-5-fluoronicotinamide] | < 10 | 65 to 130 | < 1000 |  | ≥ 50
3 | COc1cc(Nc2nc(N[C@H](C3CCC3)[C@H](C)N)c(F)cc2C(N)=O)cc(OC)c1 [Example 2-28] | < 10 | 65 to 130 | < 1000 |  | ≥ 50
4 | COc1ccc(Nc2nc(N[C@H](C3CC3)[C@H](C)N)c(F)cc2C(N)=O)cc1OC [Example 2-48, 6-(((1R,2S)-2-amino-1-cyclopropylpropyl)amino)-2-((3,4-dimethoxyphenyl)amino)-5-fluoronicotinamide] | < 10 | 65 to 130 | < 1000 |  | ≥ 50
5 | C[C@H](N)[C@H](Nc1nc(Nc2cnc(N3CCOCC3)c(F)c2)c(C(N)=O)cc1F)C1CCC1 [Example 2-77, 6-(((1R,2S)-2-amino-1-cyclobutylpropyl)amino)-5-fluoro-2-((5-fluoro-6-morpholinopyridin-3-yl)amino)nicotinamide] | 10 to 50 | 130 to 200 | < 1000 |  | ≥ 50
6 | CCC[C@@H](Nc1nc(Nc2ccc3c(c2)c(N(C)C)nn3C)c(C(N)=O)cc1F)[C@H](C)N [Example 2-87, 6-(((2S,3R)-2-aminohexan-3-yl)amino)-2-((3-(dimethylamino)-1-methyl-1H-indazol-5-yl)amino)-5-fluoronicotinamide] | < 10 | 130 to 200 | 1000 to 3000 |  | ≥ 50
7 | CC[C@H](N)[C@@H](C)Nc1nc(Nc2ccc3c(c2)c(N(C)C)nn3C)c(C(N)=O)cc1F [Example 2-91, 6-(((2R,3S)-3-aminopentan-2-yl)amino)-2-((3-(dimethylamino)-1-methyl-1H-indazol-5-yl)amino)-5-fluoronicotinamide] | 10 to 50 | 130 to 200 | 1000 to 3000 |  | ≥ 50
8 | CC[C@H](N)[C@@H](C)Nc1nc(Nc2cccc3c2cnn3CC)c(C(N)=O)cc1F [Example 2-100, 6-(((2R,3S)-3-aminopentan-2-yl)amino)-2-((1-ethyl-1H-indazol-4-yl)amino)-5-fluoronicotinamide] | < 10 | 130 to 200 | 1000 to 3000 |  | ≥ 50
9 | COCCn1nc(OC)c2cc(Nc3nc(N[C@@H]4CCCC[C@@H]4N)c(F)cc3C(N)=O)ccc21 [Example 2-123, 6-(((1R,2S)-2-aminocyclohexyl)amino)-5-fluoro-2-((3-methoxy-1-(2-methoxyethyl)-1H-indazol-5-yl)amino)nicotinamide] | < 10 | 65 to 130 | < 1000 |  | ≥ 50
10 | Cc1ncc(Nc2nc(N[C@@H]3CCCC[C@@H]3N)c(F)cc2C(N)=O)cc1F [Example 2-142, 6-(((1R,2S)-2-aminocyclohexyl)amino)-5-fluoro-2-((5-fluoro-6-methylpyridin-3-yl)amino)nicotinamide] | 10 to 50 | 65 to 130 | < 1000 |  | ≥ 50
11 | COCCn1nc(OC(F)F)c2cc(Nc3nc(N[C@@H]4CCCC[C@@H]4N)c(F)cc3C(N)=O)ccc21 [Example 2-174, 6-(((1R,2S)-2-aminocyclohexyl)amino)-2-((3-(difluoromethoxy)-1-(2-methoxyethyl)-1H-indazol-5-yl)amino)-5-fluoronicotinamide] | < 10 | 130 to 200 | < 1000 |  | ≥ 50
12 | C[C@H](N)[C@H](Nc1nc(Nc2cc(F)c3c(c2)c(N(C)C)nn3C)c(C(N)=O)cc1F)C1CC1 [Example 2-188, 6-(((1R,2S)-2-amino-1-cyclopropylpropyl)amino)-2-((3-(dimethylamino)-7-fluoro-1-methyl-1H-indazol-5-yl)amino)-5-fluoronicotinamide] | < 10 | < 65 | < 1000 |  | ≥ 50
13 | COC[C@@H](Nc1nc(Nc2cc(F)c3c(c2)c(N(C)C)nn3C)c(C(N)=O)cc1F)[C@H](C)N [Example 2-193, 6-(((2S,3S)-3-amino-1-methoxybutan-2-yl)amino)-2-((3-(dimethylamino)-7-fluoro-1-methyl-1H-indazol-5-yl)amino)-5-fluoronicotinamide] | 10 to 50 | 130 to 200 | 1000 to 3000 |  | ≥ 50
14 | CN(C)c1nn(C)c2c(F)cc(Nc3nc(N[C@@H]4CCOC[C@@H]4N)c(F)cc3C(N)=O)cc12 [Example 2-213, 6-(((3R,4R)-3-aminotetrahydro-2H-pyran-4-yl)amino)-2-((3-(dimethylamino)-7-fluoro-1-methyl-1H-indazol-5-yl)amino)-5-fluoronicotinamide] | < 10 | 65 to 130 | < 1000 |  | ≥ 50
15 | CCC[C@@H](Nc1nc(Nc2cnc3c(c2)c(OC)nn3C)c(C(N)=O)cc1F)[C@H](C)N [Example 2-252, 6-(((2S,3R)-2-aminohexan-3-yl)amino)-5-fluoro-2-((3-methoxy-1-methyl-1H-pyrazolo[3,4-b]pyridin-5-yl)amino)nicotinamide] | < 10 | 130 to 200 | < 1000 |  | ≥ 50
16 | COCCn1ncc2cc(Nc3nc(N[C@H](C4CC4)[C@H](C)N)c(F)cc3C(N)=O)ccc21 [Example 2-265, 6-(((1R,2S)-2-amino-1-cyclopropylpropyl)amino)-5-fluoro-2-((1-(2-methoxyethyl)-1H-indazol-5-yl)amino)nicotinamide] | < 10 | 65 to 130 | < 1000 |  | ≥ 50
17 | COC[C@@H](Nc1nc(Nc2cc(OC)cc(OC)c2)c(C(N)=O)cc1F)[C@H](C)N [Example 2-267, 6-(((2S,3S)-3-amino-1-methoxybutan-2-yl)amino)-2-((3,5-dimethoxyphenyl)amino)-5-fluoronicotinamide] | < 10 | 65 to 130 | 1000 to 3000 |  | ≥ 50
18 | COCCn1ncc2c(Nc3nc(N[C@@H]4CCCC[C@@H]4N)c(F)cc3C(N)=O)cccc21 [Example 2-302, 6-(((1R,2S)-2-aminocyclohexyl)amino)-5-fluoro-2-((1-(2-methoxyethyl)-1H-indazol-4-yl)amino)nicotinamide] | < 10 | 130 to 200 | 1000 to 3000 |  | ≥ 50
19 | CCn1ncc2c(Nc3nc(N[C@@H]4CCOC[C@@H]4N)c(F)cc3C(N)=O)cccc21 [Example 2-330, 6-(((3R,4R)-3-aminotetrahydro-2H-pyran-4-yl)-amino)-2-((1-ethyl-1H-indazol-4-yl)amino)-5-fluoronicotinamide] | < 10 | 65 to 130 | < 1000 |  | ≥ 50
20 | Cn1nc(OC(F)F)c2cc(Nc3nc(N[C@@H]4CCOC[C@@H]4N)c(F)cc3C(N)=O)ccc21 [Example 2-348, 6-(((3R,4R)-3-aminotetrahydro-2H-pyran-4-yl)amino)-2-((3-(difluoromethoxy)-1-methyl-1H-indazol-5-yl)amino)-5-fluoronicotinamide] | < 10 | 130 to 200 | < 1000 |  | ≥ 50
